Measured values: ChEMBL document CHEMBL1158365, “Alkyne chemistry in crop protection” (2009)
≈ marks a conversion by molar mass, not a printed value.

What was measured:
Format in all cases: functional
[1] = test system: Ipomoea purpurea; assay: Herbicidal activity against Ipomoea purpurea
[2] = test system: Abutilon theophrasti; assay: Herbicidal activity against Abutilon theophrasti
[3] = test system: Plasmopara viticola; assay: Antioomycetic activity against Plasmopara viticola
[4] = test system: Phytophthora infestans; assay: Antioomycetic activity against Phytophthora infestans

SMILES	ED85 [1]	ED85 [2]	EC80 [3]	EC80 [4]
CCCn1c(=O)ccc2cc(F)c(-n3c(=O)cc(C(F)(F)F)n(C)c3=O)cc21	30 g/ha	10 g/ha		
C#CCOc1ccc(CCNC(=O)C(OC(C)(C)C#C)c2ccc(Cl)cc2)cc1OC (centres undefined)			3.5 µg/mL (≈ 7.96 µM)	4.9 µg/mL (≈ 11.1 µM)
C#CCOc1ccc(CCNC(=O)C(OC(=O)OC)c2ccc(Cl)cc2)cc1OC (centres undefined)			110 µg/mL (≈ 254 µM)	38.6 µg/mL (≈ 89.4 µM)
C#CCOc1ccc(CCNC(=O)C(OCC#C)c2ccc(Cl)cc2)cc1OC (centres undefined) [MANDIPROPAMID]			1.2 µg/mL (≈ 2.91 µM)	0.1 µg/mL (≈ 0.243 µM)
C#CCOc1ccc(CCNC(=O)C(OC(=O)CC#N)c2ccc(Cl)cc2)cc1OC (centres undefined)			4.9 µg/mL (≈ 11.1 µM)	3.1 µg/mL (≈ 7.03 µM)
C#CCOc1ccc(CCNC(=O)C(OC(=O)CC)c2ccc(Cl)cc2)cc1OC (centres undefined)			2.8 µg/mL (≈ 6.51 µM)	4.2 µg/mL (≈ 9.77 µM)
Cn1c(C(F)(F)F)cc(=O)n(-c2cc3[nH]c(=O)ccc3cc2F)c1=O	30 g/ha	30 g/ha		
C=CCn1c(=O)ccc2cc(F)c(-n3c(=O)cc(C(F)(F)F)n(C)c3=O)cc21	3 g/ha	1 g/ha		
C#CCOc1ccc(CCNC(=O)C(OCCF)c2ccc(Cl)cc2)cc1OC (centres undefined)			8.9 µg/mL (≈ 21.2 µM)	4.7 µg/mL (≈ 11.2 µM)
Cn1c(C(F)(F)F)cc(=O)n(-c2cc3c(ccc(=O)n3C)cc2F)c1=O	10 g/ha	10 g/ha		
CC(C)Cn1c(=O)ccc2cc(F)c(-n3c(=O)cc(C(F)(F)F)n(C)c3=O)cc21	30 g/ha	10 g/ha		
C#CCOc1ccc(CCNC(=O)C(OCCC)c2ccc(Cl)cc2)cc1OC (centres undefined)			31 µg/mL (≈ 74.5 µM)	5.4 µg/mL (≈ 13 µM)
COC(=O)Cn1c(=O)ccc2cc(F)c(-n3c(=O)cc(C(F)(F)F)n(C)c3=O)cc21	100 g/ha	10 g/ha		
C#CCOc1ccc(CCNC(=O)C(OC)c2ccc(Cl)cc2)cc1OC (centres undefined)			3.5 µg/mL (≈ 9.02 µM)	9.7 µg/mL (≈ 25 µM)
C#CCOc1ccc(CCNC(=O)C(OCC#CC)c2ccc(Cl)cc2)cc1OC (centres undefined)			14 µg/mL (≈ 32.9 µM)	18.3 µg/mL (≈ 43 µM)
C#CCOc1ccc(CCNC(=O)C(O)c2ccc(Cl)cc2)cc1OC (centres undefined)			10.4 µg/mL (≈ 27.8 µM)	34.6 µg/mL (≈ 92.6 µM)
Cn1c(C(F)(F)F)cc(=O)n(-c2cc3c(ccc(=O)n3CC#N)cc2F)c1=O	30 g/ha	10 g/ha		
C#CCOc1ccc(CCNC(=O)C(OC(C)C)c2ccc(Cl)cc2)cc1OC (centres undefined)			10.1 µg/mL (≈ 24.3 µM)	3.1 µg/mL (≈ 7.45 µM)
C#CCn1c(=O)ccc2cc(F)c(-n3c(=O)cc(C(F)(F)F)n(C)c3=O)cc21	3 g/ha	1 g/ha		
CCn1c(=O)ccc2cc(F)c(-n3c(=O)cc(C(F)(F)F)n(C)c3=O)cc21	10 g/ha	3 g/ha		
C#CCOc1ccc(CCNC(=O)C(OCC=C)c2ccc(Cl)cc2)cc1OC (centres undefined)			18.6 µg/mL (≈ 44.9 µM)	44.1 µg/mL (≈ 107 µM)
C#CCOc1ccc(CCNC(=O)C(OCC)c2ccc(Cl)cc2)cc1OC (centres undefined)			2 µg/mL (≈ 4.98 µM)	4.6 µg/mL (≈ 11.4 µM)
